Measurements published in ChEMBL document CHEMBL2440076, “New triarylpyrazoles as broad-spectrum anticancer agents: design, synthesis, and biological evaluation” (Eur J Med Chem, 2013).

How the values were obtained:
Type in all cases: functional
UACC-62 = assay: Growth inhibition of human UACC62 cells assessed as cell growth at 3X10'-7 M after 48 hrs by sulforhodamine B assay; conditions: UACC-62, 48 h, read-out: Activity
LOX IMVI [1] = assay: Growth inhibition of human LOXIMVI cells assessed as cell growth at 3X10'-7 M after 48 hrs by sulforhodamine B assay; conditions: read-out: Activity
U-251 = assay: Growth inhibition of human U251 cells assessed as cell growth at 3X10'-7 M after 48 hrs by sulforhodamine B assay; conditions: U-251, 48 h, read-out: Activity
SF-295 = assay: Growth inhibition of human SF295 cells assessed as cell growth at 3X10'-7 M after 48 hrs by sulforhodamine B assay; conditions: SF-295, 48 h, read-out: Activity
HT-29 = assay: Growth inhibition of human HT-29 cells assessed as cell growth at 3X10'-7 M after 48 hrs by sulforhodamine B assay; conditions: HT-29, 48 h, read-out: Activity
HCT-116 [2] = assay: Growth inhibition of human HCT116 cells assessed as cell growth at 3X10'-7 M after 48 hrs by sulforhodamine B assay; conditions: HCT-116, 48 h, read-out: Activity
K562 = assay: Growth inhibition of human K562 cells assessed as cell growth at 3X10'-7 M after 48 hrs by sulforhodamine B assay; conditions: K562, 48 h, read-out: Activity
CCRF-CEM [3] = assay: Growth inhibition of human CCRF-CEM cells assessed as cell growth at 3X10'-7 M after 48 hrs by sulforhodamine B assay; conditions: read-out: Activity
IGROV-1 = assay: Growth inhibition of human IGROV1 cells assessed as cell growth at 3X10'-8 M after 48 hrs by sulforhodamine B assay; conditions: IGROV-1, 48 h, read-out: Activity
HCT-15 [4] = assay: Growth inhibition of human HCT15 cells assessed as cell growth at 3X10'-8 M after 48 hrs by sulforhodamine B assay; conditions: HCT-15, 48 h, read-out: Activity
HCT-116 [5] = assay: Growth inhibition of human HCT116 cells assessed as cell growth at 3X10'-8 M after 48 hrs by sulforhodamine B assay; conditions: HCT-116, 48 h, read-out: Activity
NCI-H460 = assay: Growth inhibition of human NCI-H460 cells assessed as cell growth at 3X10'-8 M after 48 hrs by sulforhodamine B assay; conditions: NCI-H460, 48 h, read-out: Activity
NCI-H23 [6] = assay: Growth inhibition of human NCI-H23 cells assessed as cell growth at 3X10'-8 M after 48 hrs by sulforhodamine B assay; conditions: NCI-H23, 48 h, read-out: Activity
RPMI-8226 [7] = assay: Growth inhibition of human RPMI8226 cells assessed as cell growth at 3X10'-8 M after 48 hrs by sulforhodamine B assay; conditions: RPMI-8226, 48 h, read-out: Activity
786-0 [8] = assay: Growth inhibition of human 786-0 cells assessed as cell growth at 3X10'-5 M after 48 hrs by sulforhodamine B assay; conditions: 786-0, 48 h, read-out: Activity
OVCAR-5 = assay: Growth inhibition of human OVCAR5 cells assessed as cell growth at 3X10'-5 M after 48 hrs by sulforhodamine B assay; conditions: OVCAR-5, 48 h, read-out: Activity
A498 = assay: Growth inhibition of human A498 cells assessed as cell growth at 3X10'-9 M after 48 hrs by sulforhodamine B assay; conditions: A498, 48 h, read-out: Activity
OVCAR-3 [9] = assay: Growth inhibition of human OVCAR3 cells assessed as cell growth at 3X10'-9 M after 48 hrs by sulforhodamine B assay; conditions: OVCAR-3, 48 h, read-out: Activity
OVCAR-3 [10] = assay: Growth inhibition of human OVCAR3 cells assessed as cell growth at 3X10'-5 M after 48 hrs by sulforhodamine B assay; conditions: OVCAR-3, 48 h, read-out: Activity
M14 [11] = assay: Growth inhibition of human M14 cells assessed as cell growth at 3X10'-5 M after 48 hrs by sulforhodamine B assay; conditions: M14, 48 h, read-out: Activity
MDA-MB-231 = assay: Growth inhibition of human MDA-MB-231 cells assessed as cell growth at 3X10'-6 M after 48 hrs by sulforhodamine B assay; conditions: MDA-MB-231, 48 h, read-out: Activity
MCF7 = assay: Growth inhibition of human MCF7 cells assessed as cell growth at 3X10'-6 M after 48 hrs by sulforhodamine B assay; conditions: MCF7, 48 h, read-out: Activity
LOX IMVI [12] = assay: Growth inhibition of human LOXIMVI cells assessed as cell growth at 3X10'-9 M after 48 hrs by sulforhodamine B assay; conditions: read-out: Activity
SNB-19 = assay: Growth inhibition of human SNB19 cells assessed as cell growth at 3X10'-9 M after 48 hrs by sulforhodamine B assay; conditions: SNB-19, 48 h, read-out: Activity
SW-620 = assay: Growth inhibition of human SW620 cells assessed as cell growth at 3X10'-9 M after 48 hrs by sulforhodamine B assay; conditions: SW-620, 48 h, read-out: Activity
COLO 205 = assay: Growth inhibition of human COLO205 cells assessed as cell growth at 3X10'-9 M after 48 hrs by sulforhodamine B assay; conditions: COLO 205, 48 h, read-out: Activity
786-0 [13] = assay: Growth inhibition of human 786-0 cells assessed as cell growth at 3X10'-6 M after 48 hrs by sulforhodamine B assay; conditions: 786-0, 48 h, read-out: Activity
SK-MEL-2 = assay: Growth inhibition of human SK-MEL-2 cells assessed as cell growth at 3X10'-6 M after 48 hrs by sulforhodamine B assay; conditions: SK-MEL-2, 48 h, read-out: Activity
M14 [14] = assay: Growth inhibition of human M14 cells assessed as cell growth at 3X10'-6 M after 48 hrs by sulforhodamine B assay; conditions: M14, 48 h, read-out: Activity
LOX IMVI [15] = assay: Growth inhibition of human LOXIMVI cells assessed as cell growth at 3X10'-6 M after 48 hrs by sulforhodamine B assay; conditions: read-out: Activity
HCT-15 [16] = assay: Growth inhibition of human HCT15 cells assessed as cell growth at 3X10'-6 M after 48 hrs by sulforhodamine B assay; conditions: HCT-15, 48 h, read-out: Activity
NCI-H23 [17] = assay: Growth inhibition of human NCI-H23 cells assessed as cell growth at 3X10'-6 M after 48 hrs by sulforhodamine B assay; conditions: NCI-H23, 48 h, read-out: Activity
RPMI-8226 [18] = assay: Growth inhibition of human RPMI8226 cells assessed as cell growth at 3X10'-6 M after 48 hrs by sulforhodamine B assay; conditions: RPMI-8226, 48 h, read-out: Activity
CCRF-CEM [19] = assay: Growth inhibition of human CCRF-CEM cells assessed as cell growth at 3X10'-6 M after 48 hrs by sulforhodamine B assay; conditions: read-out: Activity
MDA-MB-468 = assay: Growth inhibition of human MDA-MB-468 cells assessed as cell growth at 3X10'-7 M after 48 hrs by sulforhodamine B assay; conditions: MDA-MB-468, 48 h, read-out: Activity
CAKI-1 = assay: Growth inhibition of human CAKI-1 cells assessed as cell growth at 3X10'-7 M after 48 hrs by sulforhodamine B assay; conditions: CAKI-1, 48 h, read-out: Activity

COc1cc(-c2nn(-c3cccc(NC(=O)c4ccc(Cl)c(C(F)(F)F)c4)c3)cc2-c2ccncc2)ccc1Cl
growth at 0.3 µM (UACC-62): 92% | growth at 0.3 µM (LOX IMVI [1]): 86% | growth at 0.3 µM (U-251): 91% | growth at 0.3 µM (SF-295): 90% | growth at 0.3 µM (HT-29): 93% | growth at 0.3 µM (HCT-116 [2]): 100% | growth at 0.3 µM (K562): 115% | growth at 0.3 µM (CCRF-CEM [3]): 101% | growth at 0.03 µM (IGROV-1): 89% | growth at 0.03 µM (HCT-15 [4]): 99% | growth at 0.03 µM (HCT-116 [5]): 101% | growth at 0.03 µM (NCI-H460): 104% | growth at 0.03 µM (NCI-H23 [6]): 92% | growth at 0.03 µM (RPMI-8226 [7]): 100% | growth at 30 µM (786-0 [8]): 32% | growth at 30 µM (OVCAR-5): 68% | growth at 0.003 µM (A498): 95% | growth at 0.003 µM (OVCAR-3 [9]): 104% | growth at 30 µM (OVCAR-3 [10]): -12% | growth at 30 µM (M14 [11]): 19% | growth at 3 µM (MDA-MB-231): 27% | growth at 3 µM (MCF7): 42% | growth at 0.003 µM (LOX IMVI [12]): 92% | growth at 0.003 µM (SNB-19): 95% | growth at 0.003 µM (SW-620): 98% | growth at 0.003 µM (COLO 205): 101% | growth at 3 µM (786-0 [13]): 71% | growth at 3 µM (SK-MEL-2): 36% | growth at 3 µM (M14 [14]): 47% | growth at 3 µM (LOX IMVI [15]): 39% | growth at 3 µM (HCT-15 [16]): 50% | growth at 3 µM (NCI-H23 [17]): 59% | growth at 3 µM (RPMI-8226 [18]): 31% | growth at 3 µM (CCRF-CEM [19]): 32% | growth at 0.3 µM (MDA-MB-468): 89% | growth at 0.3 µM (CAKI-1): 85%
